Test results as given in US20060070135A1, “Compositions and methods for inhibiting the enzymatic activity of PTP-1B” (priority 1998, published 2006).

How the values were obtained:
[1] = molecular target: Insulin receptor (mouse, endogenous; β-subunit immunoprecipitated from tissue membrane fractions) (mouse) (UniProt P15208); assay: cell-based or functional assay
[2] = tested on: phosphorylation level of the insulin receptor in CHO-IR cells (endogenous PTP-1B); assay: Intact cell assay: insulin receptor phosphorylation level in CHO-IR cells treated with PTP-1B inhibitors and stimulated with insulin; type: cell-based, Chinese hamster; details: 5 nM insulin; for fold induction at 50 µM / Intact cell assay: fold-increase over control: at 50 μM
Procedure: The phosphorylation level of the insulin receptor (IR) was determined in CHO-IR cells (Chinese hamster ovarian cells expressing endogenous PTP-1B and overexpressing human insulin receptor; ATCC, Manassas, Va.) treated with PTP-1B inhibitors and stimulated with 5 nM insulin. CHO-IR cells were grown in F12 media, 10% fetal bovine serum (FBS), and 1% penstrep. All experiments were conducted within the first 12 passages after thawing cells.
On the first day of the experiment, CHO-IR cells were placed in 6-well plates (1/10 of 100 mm confluent plate). Once cells were confluent (˜24 hours later), the cells were starved overnight in 0% fetal bovine serum F12 medium. After the overnight incubation, the medium was changed to fresh 0% F12 30 minutes prior to the addition of inhibitor. A 1 mL aliquote of media containing inhibitor (10, 25 or 50 μM), with a final concentration of 0.1% DMSO, was added to each well. The inhibitors were added directly to the serum-free media, shortly before using them (i.e., the inhibitor was added to cells within 10 minutes of dilution). Cells were incubated with inhibitors for 2-4 hours. A 250 μL aliquote of insulin (human insulin, HUMULIN™ was subsequently added to each well at a final concentration of 5 nM. The cells were incubated for an additional 10 minutes and washed 2× with cold phosphate-buffered saline (PBS). Proteins were isolated with modified RIPA buffer (200 μL/well) containing protease inhibitor (COMPLETE™), NaF, and Na3VO4.
Protein quantification was conducted using Bradford reagent (BIO-RAD, Hercules, Calif.). Proteins were separated in an 8% SDS-PAGE gel with 25-40 μg protein per well. The proteins were subsequently transferred to PDVF membrane for western blot analysis. Membranes were blocked for 1 hour in either 1% bovine serum albumin for the 4G10 antibody or 5% milk for other antibodies. Membranes were incubated overnight at 4° C. with 4G10 or phospho-antibody, washed 4×5 minutes to remove the primary antibody, incubated 1 hour with secondary antibody, washed an additional 4×5 minutes, and visualized using an ECL detection kit.
Membranes were subsequently stripped, blocked for 1 hour and probed with anti-P-IR, anti-IR, anti-p-AKT, and anti-AKT primary antibodies. Primary antibodies were anti-IR pY1162pY1163 (human) polyclonal antibody and anti-1-IR polyclonal antibody. The blots were washed 4×5 minutes to remove primary antibody, incubated 1 hour in anti-rabbit HRP secondary antibody, washed an additional 4×5 minutes and visualized using ECL.
Bands visualized on the blots were quantified using NIH Image 1.62. Quantification was conducted for at least three experiments.

[3] = Cricetulus griseus, read-out: Intact cell assay: fold-increase over control

UniProt P15208, sequence (P15208 753-1372 limits assumed): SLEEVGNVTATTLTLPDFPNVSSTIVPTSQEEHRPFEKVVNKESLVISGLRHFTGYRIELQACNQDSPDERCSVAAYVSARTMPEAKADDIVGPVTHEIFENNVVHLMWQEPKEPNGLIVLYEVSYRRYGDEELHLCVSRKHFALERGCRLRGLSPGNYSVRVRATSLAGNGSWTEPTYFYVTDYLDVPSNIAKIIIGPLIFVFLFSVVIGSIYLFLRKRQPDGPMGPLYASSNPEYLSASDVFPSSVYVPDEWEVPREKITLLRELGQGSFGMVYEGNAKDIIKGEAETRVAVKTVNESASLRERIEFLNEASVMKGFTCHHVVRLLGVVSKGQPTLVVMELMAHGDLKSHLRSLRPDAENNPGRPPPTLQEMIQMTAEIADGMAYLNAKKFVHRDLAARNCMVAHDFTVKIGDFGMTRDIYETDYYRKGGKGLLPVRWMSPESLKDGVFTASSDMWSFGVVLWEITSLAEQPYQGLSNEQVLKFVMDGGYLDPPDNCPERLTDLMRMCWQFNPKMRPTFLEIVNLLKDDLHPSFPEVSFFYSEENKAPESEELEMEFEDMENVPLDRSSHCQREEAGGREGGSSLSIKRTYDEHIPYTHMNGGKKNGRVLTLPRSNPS

Molecule	Intact cell assay: fold-increase over control [2]	other results
Protein tyrosine phosphatase-1B (mouse, endogenous) (from UniProt P35821 1-432)	–	insulin receptor tyrosine phosphorylation in liver of wild-type mice, 5 minutes against 1 minute after insulin injection [1]: 50%
O=C1C=CC(=O)c2c(O)cccc21 [compound 21, 5-hydroxy-[1,4]-naphthoquinone]	–	fold induction at 50 µM [2, 3]: 0.87
COc1cc(/C=C2/SC(=S)N(c3cccc(Cl)c3)C2=O)cc([N+](=O)[O-])c1O [compound 22, 3-(3-chlorophenyl)-5-(4-hydroxy-3-methoxy-5-nitrobenzylidene)-2-thioxothiazolidin-4-one]	–	fold induction at 25 µM ([2]; Cricetulus griseus, at 25 μM, read-out: Intact cell assay: fold-increase over control): 2.7; fold induction at 50 µM [2, 3]: 4.1
CCc1nnc(NS(=O)(=O)c2ccc(NC(=S)NC(=O)/C=C/c3ccc(C(C)C)cc3)cc2)s1 [compound 14, N-(5-ethyl-[1,3,4]thiadiazol-2-yl)-4-{3-[3-(4-isopropylphenyl)-acryloyl]-thioureido}-benzenesulfonamide]	Inactive at 50 μM	–
O=[N+]([O-])c1ccc(O)c(/C=N/N=c2/[nH]c3nonc3nc2Nc2ccc(I)cc2)c1 [compound 20, 2-{[6-(4-iodophenylamino)-4H-[1,2,5]oxadiazolo[3,4-b]pyrazin-5-ylidene]-hydrazonomethyl}-4-nitrophenol]	Inactive at 50 μM	–
O=C(O)c1ccc(N2C(=O)/C(=C/c3ccc(-c4ccc([N+](=O)[O-])cc4)o3)C=C2c2ccccc2)cc1 [compound 17, 4-{3-[5-(4-nitrophenyl)-furan-2-ylmethylene]-2-oxo-5-phenyl-2,3-dihydropyrrol-1-yl}-benzoic acid]	Inactive at 50 μM	–
N#CC(C#N)=C1CSc2sc(=S)sc2SC1 [compound 13, 2-(2-thioxo-[1,3]dithiolo[4,5-b][1,4]dithiepin-6-ylidene)malononitrile]	Inactive at 50 μM	–
COc1ccc(-c2csc(N3N=C(c4ccc([N+](=O)[O-])cc4)C(=NNc4ccc(S(N)(=O)=O)cc4)C3=O)n2)cc1 [compound 15, 4-{N′-[1-[4-(4-methoxyphenyl)-thiazol-2-yl]-3-(4-nitrophenyl)-5-oxo-1,5-dihydropyrazol-4-ylidene]-hydrazino}-benzenesulfonamide]	Inactive at 50 μM	–
Nc1nnnn1/N=C/c1cc(I)cc(I)c1O [compound 19, 2-[(5-aminotetrazol-1-ylimino)-methyl]-4,6-diiodophenol]	Inactive at 50 μM	–
Nc1c(S(=O)(=O)O)cc(S(=O)(=O)O)c2cccc(O)c12 [compound 11, 4-amino-5-hydroxynaphthalene-1,3-disulfonic acid]	Inactive at 50 μM	–
O=C(/C=C/c1ccco1)Nc1ccc(C(=O)O)cc1NC(=O)/C=C/c1ccco1 [compound 16, 3,4-bis-(3-furan-2-ylacryloylamino)-benzoic acid]	Inactive at 50 μM	–
Protein tyrosine phosphatase-1B (mouse, endogenous) (from UniProt P35821 1-432) (enzyme)	–	insulin receptor phosphorylation level in muscle after insulin challenge, PTP-1B (+/-) against wild-type mice on high fat, high carbohydrate diet [1]: 2 fold; insulin receptor phosphorylation level in muscle after insulin challenge, PTP-1B (-/-) against wild-type mice on high fat, high carbohydrate diet [1]: 4 fold; phosphotyrosine level of the insulin receptor in muscle of insulin treated PTP-1B null mice compared to wild-type (immunoprecipitation, anti-phosphotyrosine immunoblot, densitometry) [1]: 40%
